Measurements as given in PubChem BioAssay (NCI).
Values joined by “and” are separate entries in the source; they are usually repeats but may differ in a detail not shown here. Identical values can stand only once.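 Cells were grown in 96-well plates and exposed to each compound for 48 hours at five concentrations; endpoints were interpolated linearly between bracketing concentrations, or set to the highest concentration if not reached. GI50: concentration for 50% inhibition of growth. At the TGI there is no net growth.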

What was measured:
Experiment in all cases: inhibition of tumour cell growth, NCI panel, 48 h
NCI-H522 lung = tested on: NCI-H522 lung
CCRF-CEM leukemia = tested on: CCRF-CEM leukemia
786-0 renal = tested on: 786-0 renal
UACC-257 melanoma = tested on: UACC-257 melanoma
SF-268 CNS = tested on: SF-268 CNS
OVCAR-3 ovarian = tested on: OVCAR-3 ovarian
CAKI-1 renal = tested on: CAKI-1 renal
OVCAR-8 ovarian = tested on: OVCAR-8 ovarian
HCT-116 colon = tested on: HCT-116 colon
NCI/ADR-RES ovarian = tested on: NCI/ADR-RES ovarian

Structure (SMILES) | TGI (NCI-H522 lung) | TGI (CCRF-CEM leukemia) | TGI (786-0 renal) | TGI (UACC-257 melanoma) | TGI (SF-268 CNS) | TGI (OVCAR-3 ovarian) | TGI (CAKI-1 renal) | TGI (OVCAR-8 ovarian) | TGI (HCT-116 colon) | TGI (NCI/ADR-RES ovarian) | GI50 (NCI-H522 lung) | GI50 (CCRF-CEM leukemia) | GI50 (786-0 renal) | GI50 (UACC-257 melanoma) | GI50 (SF-268 CNS) | GI50 (OVCAR-3 ovarian) | GI50 (CAKI-1 renal) | GI50 (OVCAR-8 ovarian) | GI50 (HCT-116 colon) | GI50 (NCI/ADR-RES ovarian)
C[C@H]1/C(=C/C(=O)OCCN(C)C)CC[C@H]2[C@H]1C(=O)C[C@H]1C(C)(C)[C@@H](O)CC[C@]21C | > 100 µM | > 100 µM | > 100 µM | > 100 µM | > 100 µM | > 100 µM | > 100 µM | > 100 µM | > 100 µM | > 100 µM | – | – | – | – | – | – | – | – | – | –
Cc1ccc2oc(=O)cc(/C(=C3/C=CC=N3)c3ccc[nH]3)c2c1 | 5.22 µM | 4.01 µM | 0.892 µM | 4.06 µM | 6.73 µM | 0.707 µM | 10.6 µM | 1.07 µM | 1.79 µM | 3.77 µM | 1.53 µM | 290 nM | 279 nM | 0.711 µM | 0.526 µM | 271 nM | 530 nM | 0.304 µM | 375 nM | 314 nM
CO[C@H]1C=CO[C@@]2(C)Oc3c(C)c(O)c4c(O)c(c(CN5CCN(C)CC5)c(O)c4c3C2=O)NC(=O)/C(C)=C\C=C[C@H](C)[C@H](O)C(C)[C@@H](O)C(C)[C@H](OC(C)=O)[C@@H]1C (stereo partly drawn) | 46.5 µM | 22.3 µM | > 100 µM | > 72.8 µM | > 100 µM | 14.4 µM | > 100 µM | > 100 µM | 35.9 µM | > 100 µM | – | – | – | – | – | – | – | – | – | –
Cc1c(O)c(N=Nc2nc3ccccc3s2)c2ccccc2c1O | 46.6 µM | > 50 µM | > 50 µM | 36.1 µM | > 50 µM | > 50 µM | > 50 µM | > 50 µM | > 50 µM | > 50 µM | 19.1 µM | > 50000 nM | > 50000 nM | 14.7 µM | 18.2 µM | 12300 nM | 21100 nM | 19.7 µM | 22600 nM | 34300 nM
COc1cc2c(c(OC)c1OC)-c1ccc(O)cc1[C@@H](NC(C)=O)CC2 | 0.097 µM | 1.62 µM | > 100 µM | > 100 µM | > 29.1 µM | 0.0513 µM | > 39.8 µM | > 100 µM | > 100 µM | 6.78 µM | 0.0242 µM | 31.8 nM | 77.9 nM | > 68.3 µM | 0.0641 µM | 23.2 nM | 183 nM | 0.0562 µM | 39.5 nM | 533 nM
O=C1CSC(=S)N1c1ccco1 | 64.1 µM | > 100 µM | 61 µM | > 100 µM | > 100 µM | > 100 µM | > 100 µM | > 100 µM | > 100 µM | > 100 µM | – | – | – | – | – | – | – | – | – | –
NC(N)=NCC1CCCCCCN1 (stereo not drawn) | > 100 µM | > 100 µM | > 100 µM | > 100 µM | > 100 µM | > 100 µM | > 100 µM | > 100 µM | > 100 µM | > 100 µM | – | – | – | – | – | – | – | – | – | –
O=C(/C=C/c1ccc(Cl)cc1)c1ccccc(=O)c1O | 50.9 µM | 0.773 µM | 32.1 µM | 14.6 µM | 36.2 µM | 19.8 µM | 2.79 µM | > 100 µM | 10.4 µM | 2.42 µM | – | – | – | – | – | – | – | – | – | –
CC(=O)Nc1cc2cc(N)ccc2oc1=O | > 100 µM | > 100 µM | > 100 µM | > 100 µM | > 100 µM | > 100 µM | > 100 µM | > 100 µM | > 100 µM | > 100 µM | – | – | – | – | – | – | – | – | – | –
Oc1ccc(O)c(-c2cn3c(n2)SCC3)c1 | > 100 µM | > 100 µM | 6.59 µM | 55.8 µM | > 100 µM | 28.1 µM | 5.57 µM | 52.1 µM | 7.81 µM | 39.1 µM | 4.93 µM | 5180 nM | 2320 nM | 25.5 µM | 28.7 µM | 9360 nM | 2470 nM | 19.7 µM | 3070 nM | 17200 nM
CCN(CC)CCCC(C)Nc1ccnc2cc(Cl)ccc12 (stereo not drawn) | > 100 µM | > 100 µM | > 100 µM and 23.9 µM | 35.7 µM and > 62.1 µM | > 100 µM | 75.6 µM and > 100 µM | 79.7 µM and 55.7 µM | > 100 µM | > 100 µM and 42 µM | > 100 µM | > 100 µM | 38800 nM | 67200 nM | 19.8 µM | – | 22300 nM | 28800 nM | 57.5 µM | 25600 nM | –
CN(C)CCCN(CCC1CCCCC1)CCC1CCCCC1 | 8.3 µM | 6.38 µM | 9.16 µM | 2.82 µM | 18 µM | 5.63 µM | 8.06 µM | 7.12 µM | 3.64 µM | 7 µM | 3.1 µM | 1720 nM | 2740 nM | 0.77 µM | 5.5 µM | 2110 nM | 2650 nM | 3.12 µM | 1570 nM | 683 nM
CSC(=NC#N)S/C=C/C(=O)c1ccccc1 | 47.8 µM | 15 µM | > 100 µM | > 100 µM | > 100 µM | > 100 µM | 37.2 µM | > 100 µM | 34.1 µM | 99.3 µM | 19.8 µM | 1770 nM | 33700 nM | 45.4 µM | 43.8 µM | 31500 nM | 16600 nM | 38.1 µM | 17900 nM | 31300 nM
Nc1c(C(=O)Nc2ccccc2)sc2nc3c(cc12)CCCCC3 | > 100 µM | > 100 µM | 11.8 µM | > 100 µM | 54.4 µM | 2.07 µM | > 100 µM | > 100 µM | > 100 µM | > 100 µM | 4.9 µM | 410 nM | 465 nM | 1.46 µM | 1.1 µM | 415 nM | 478 nM | 1.51 µM | 460 nM | 507 nM
O=C(CCl)NCCNc1nccc(Nc2ccc(S(=O)(=O)Nc3ccccn3)cc2)n1 | 3.98 µM | 9.03 µM | 11.7 µM | 14.4 µM | 12.9 µM | 6.17 µM | 10.4 µM | > 100 µM | 5.53 µM | 83.2 µM | 1.61 µM | 2190 nM | 3250 nM | 2.54 µM | 2.63 µM | 1770 nM | 2310 nM | 3.84 µM | 1540 nM | 2960 nM
CC1=C2CC(C)(C)/C=C\C(=O)/C(C)=C\C3=C[C@H](C)C[C@]3(O2)C1=O | 0.651 µM | 0.661 µM | 1.25 µM | 4.41 µM | 18.4 µM | 1.15 µM | 2.42 µM | 6.82 µM | 1.09 µM | 7.77 µM | – | – | – | – | – | – | – | – | – | –
Cc1c2ccn(O)cc2c(C)c2c1nc1ccccc12 | 22.3 µM | > 60.1 µM | 35.4 µM | > 100 µM | 27.5 µM | > 81.7 µM | > 51.7 µM | 64.4 µM | 24.7 µM | > 100 µM | – | – | – | – | – | – | – | – | – | –
CC(=O)/C(=C/c1ccccc1)C(=O)CC(C)C | 22 µM | > 100 µM | 32.5 µM | 28.9 µM | 33 µM | 15.9 µM | 20.6 µM | 53 µM | 3.97 µM | 58.9 µM | 9.68 µM | 3960 nM | 17500 nM | 13.9 µM | 14.3 µM | 4690 nM | 7560 nM | 17.6 µM | 2050 nM | 18200 nM
O=C1/C=C/[C@@H](O)[C@@H]2C[C@@H](O)C[C@H]2/C=C/CCC[C@H](CCc2cccc3ccccc23)O1 | 0.581 µM | 8.02 µM | 0.0372 µM | 0.983 µM | 12.3 µM | 1.83 µM | 3.08 µM | 13 µM | 0.283 µM | 1.86 µM | 0.234 µM | 136 nM | 20 nM | 0.0303 µM | 0.0365 µM | 39.5 nM | 239 nM | 0.0491 µM | 120 nM | 38.9 nM
COc1cc(C2CC(c3cccc(Nc4ccnc5cc(Cl)ccc45)c3)=NN2c2ccc(Cl)cc2)cc(OC)c1OC (stereo not drawn) | 22.8 µM | > 100 µM | 26.2 µM | > 100 µM | > 100 µM | > 100 µM | > 100 µM | > 100 µM | > 100 µM | > 100 µM | 1.57 µM | 4840 nM | 2050 nM | 3.45 µM | 8.16 µM | 3720 nM | 693 nM | 5.36 µM | 1680 nM | 3180 nM
CCCCCCCCCCCCCCCCCc1nccn1CCOCCO | 10.2 µg/mL | 12.4 µg/mL | 11.7 µg/mL | 11 µg/mL | 10.4 µg/mL | 9.64 µg/mL | 13.1 µg/mL | 11.6 µg/mL | 11.9 µg/mL | 37.5 µg/mL | 4.84 µg/mL | 5.18 µg/mL | 6.19 µg/mL | 5.49 µg/mL | 5.16 µg/mL | 4.74 µg/mL | 6.3 µg/mL | 5.64 µg/mL | 5.94 µg/mL | 20.4 µg/mL
CC/C=C\C[C@H](F)C/C=C1/C(=O)C=C[C@@H]1C/C=C\CCCC(=O)OC | 5.08 µM | 5.75 µM | 9.55 µM | 10.1 µM | 7.23 µM | 6.9 µM | 6.82 µM | 12.2 µM | 1.79 µM | 35 µM | 1.32 µM | 1380 nM | 2560 nM | 2.75 µM | 1.86 µM | 2050 nM | 1870 nM | 2.05 µM | 880 nM | 1710 nM
